Experimental data: patent US7279600B2, “Hydroxy-biphenyl-carbaldehyde oxime derivatives and their use as estrogenic agents” (Wyeth, priority 2003, dated 2007)
Where a name gives a salt, the structure may show the parent alone.

How the values were obtained:
ERβ = ERβ (Homo sapiens, UniProt Q92731); test: biochemical
ERα = ERα (Homo sapiens, UniProt P03372); test: biochemical
Sequence of ERα (P03372 whole entry): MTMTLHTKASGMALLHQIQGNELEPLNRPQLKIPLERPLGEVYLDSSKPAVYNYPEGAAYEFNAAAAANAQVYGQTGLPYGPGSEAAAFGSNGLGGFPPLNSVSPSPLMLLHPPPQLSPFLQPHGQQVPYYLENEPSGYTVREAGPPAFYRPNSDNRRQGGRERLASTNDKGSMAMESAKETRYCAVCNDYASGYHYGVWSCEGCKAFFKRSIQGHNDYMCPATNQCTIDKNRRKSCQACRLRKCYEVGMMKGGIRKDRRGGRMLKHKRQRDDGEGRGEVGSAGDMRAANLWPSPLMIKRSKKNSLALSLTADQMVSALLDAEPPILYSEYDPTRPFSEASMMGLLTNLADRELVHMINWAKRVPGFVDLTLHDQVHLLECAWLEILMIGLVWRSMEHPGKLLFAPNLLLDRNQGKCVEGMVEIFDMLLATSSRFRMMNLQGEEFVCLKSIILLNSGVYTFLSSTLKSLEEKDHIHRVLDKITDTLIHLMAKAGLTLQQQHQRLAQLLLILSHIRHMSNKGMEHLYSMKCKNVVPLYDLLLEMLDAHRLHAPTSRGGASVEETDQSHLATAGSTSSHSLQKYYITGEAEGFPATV

Sequence of ERβ (Q92731 whole entry, species assumed): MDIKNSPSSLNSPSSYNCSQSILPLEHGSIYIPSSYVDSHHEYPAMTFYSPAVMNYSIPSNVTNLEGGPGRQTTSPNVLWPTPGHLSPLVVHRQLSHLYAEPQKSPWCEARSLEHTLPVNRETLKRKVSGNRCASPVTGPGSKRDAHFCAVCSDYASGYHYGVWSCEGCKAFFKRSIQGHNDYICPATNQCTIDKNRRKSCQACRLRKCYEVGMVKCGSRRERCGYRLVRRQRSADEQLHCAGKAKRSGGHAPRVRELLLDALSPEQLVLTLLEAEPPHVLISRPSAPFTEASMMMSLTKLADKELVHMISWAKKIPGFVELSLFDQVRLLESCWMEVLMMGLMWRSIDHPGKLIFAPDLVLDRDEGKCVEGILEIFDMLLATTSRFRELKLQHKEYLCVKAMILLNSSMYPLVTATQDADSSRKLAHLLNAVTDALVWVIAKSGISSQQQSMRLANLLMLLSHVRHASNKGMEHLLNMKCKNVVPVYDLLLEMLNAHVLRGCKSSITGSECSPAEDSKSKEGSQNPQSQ

| melting point [°C] | IC50 (ERβ) [nM] | IC50 (ERα) [nM] | Compound |
| --- | --- | --- | --- |
| 225 to 227 |  |  | O/N=C/c1ccc(-c2ccc(O)c(F)c2)c(Cl)c1Cl (as salt: salt) [Example 57, 2,3-Dichloro-3′-fluoro-4′-hydroxy-1,1′-biphenyl-4-carbaldehyde oxime] |
| 195 to 197 | 163 | 3190 | Cc1cc(-c2ccc(O)cc2)ccc1/C=N/O [Example 29, 4′-Hydroxy-3-methyl[1,1′-biphenyl]-4-carbaldehyde oxime] |
| 207 to 210 | 3840 | > 5000 | O/N=C/c1ccc(-c2ccc(O)cc2)cc1 [Example 30, 4′-Hydroxy[1,1′-biphenyl]-4-carbaldehyde oxime] |
| 187 to 189 | 85 | 1540 | O/N=C/c1ccc(-c2ccc(O)cc2)cc1Cl [Example 31, 3-Chloro-4′-hydroxy[1,1′-biphenyl]-4-carbaldehyde oxime] |
| 178 to 180 | 421 | 3450 | O/N=C/c1ccc(-c2ccc(O)cc2)c(F)c1 [Example 32, 2-Fluoro-4′-hydroxy-1,1′-biphenyl-4-carbaldehyde oxime] |
|  | 161 | 1720 | O/N=C/c1ccc(-c2ccc(O)cc2)cc1F [Example 33, 3-Fluoro-4′-hydroxy-1,1′-biphenyl-4-carbaldehyde oxime] |
| 178 to 179 | 98 | 398 | O/N=C/c1ccc(-c2ccc(O)cc2)c(Cl)c1 [Example 34, 2-Chloro-4′-hydroxy-1,1′-biphenyl-4-carbaldehyde oxime] |
| 228 to 230 | 1060 | 7990 | COc1cc(-c2ccc(O)cc2)ccc1/C=N/O [Example 35, 4′-Hydroxy-3-methoxy-1,1′-biphenyl-4-carbaldehyde oxime] |
| 169 to 171 | 585 | 2820 | Cc1cc(/C=N/O)ccc1-c1ccc(O)cc1 [Example 36, 4′-Hydroxy-2-methyl-1,1′-biphenyl-4-carbaldehyde oxime] |
| 198 to 200 | 54 | 1910 | O/N=C/c1ccc(-c2ccc(O)c(F)c2)cc1Cl [Example 37, 3-Chloro-3′-fluoro-4′-hydroxy-1,1′-biphenyl-4-carbaldehyde oxime] |
| 216 to 219 | 268 | > 7000 | O/N=C/c1ccc(-c2cc(F)c(O)c(F)c2)cc1Cl [Example 38, 3-Chloro-3′, 5′-fluoro-4′-hydroxy-1,1′-biphenyl-4-carbaldehyde oxime] |
| 169 to 171 | 27 | 174 | Cc1cc(O)ccc1-c1ccc(/C=N/O)c(Cl)c1 [Example 39, 3-Chloro-4′-hydroxy-2′-methyl-1,1′-biphenyl-4-carbaldehyde oxime] |
| 183 to 186 | 8 | 64 | O/N=C/c1c(Cl)cc(-c2ccc(O)cc2)cc1Cl [Example 54, 3,5-Dichloro-4′-hydroxy-1,1′-biphenyl-4-carbaldehyde oxime] |
| 185 to 190 |  |  | O/N=C/c1c(Cl)cc(-c2ccc(O)c(F)c2)cc1Cl [Example 55, 3,5-Dichloro-3′-fluoro-4′-hydroxy-1,1′-biphenyl-4-carbaldehyde oxime] |
| 208 to 210 | 49 | 851 | O/N=C/c1ccc(-c2ccc(O)cc2)c(Cl)c1Cl [Example 56, 2,3-Dichloro-4′-hydroxy-1,1′-biphenyl-4-carbaldehyde oxime] |
|  | 81 | 1960 | O/N=C/c1ccc(-c2ccc(O)c(F)c2)c(Cl)c1Cl [Example 57, 2,3-Dichloro-3′-fluoro-4′-hydroxy-1,1′-biphenyl-4-carbaldehyde oxime] |
